The experiment concerns L1210 leukemia ip in BDF1 mice, survival T/C. The experiment in a line: NCI In Vivo Anticancer Drug Screen. Data for tumor model L1210 Leukemia (intraperitoneal) in B6D2F1 (BDF1) mice. The following applies: endpoint: mean survival time, higher = longer survival. Put shortly: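 Transplantable tumor model; survival measured in treated vs vehicle control mice. Value = treated/control.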

The mark [1] stands for this setting: dose: 100.0 mg/kg/injection, schedule: Q04DX002 (ip), vehicle: Klucel (hydroxypropylcellulose) (HPC).
The mark [2] stands for this setting: dose: 100.0 mg/kg/injection, schedule: Q04DX003 (ip), vehicle: saline with Tween-80.
The mark [3] stands for this setting: dose: 200.0 mg/kg/injection, schedule: Q04DX003 (ip), vehicle: saline with Tween-80.
Setting [4] is: dose: 400.0 mg/kg/injection, schedule: Q04DX003 (ip), vehicle: saline with Tween-80.
[5] abbreviates: dose: 100.0 mg/kg/injection, schedule: Q04DX003 (ip), vehicle: Klucel (hydroxypropylcellulose) (HPC).
[6] abbreviates: dose: 200.0 mg/kg/injection, schedule: Q04DX003 (ip), vehicle: Klucel (hydroxypropylcellulose) (HPC).
Setting [7] is: dose: 400.0 mg/kg/injection, schedule: Q04DX003 (ip), vehicle: Klucel (hydroxypropylcellulose) (HPC).
[8] abbreviates: dose: 100.0 mg/kg/injection, schedule: Q01DX009 (ip), vehicle: Klucel (hydroxypropylcellulose) (HPC).
The mark [9] stands for this setting: dose: 200.0 mg/kg/injection, schedule: Q01DX009 (ip), vehicle: Klucel (hydroxypropylcellulose) (HPC).
Setting [10] is: dose: 100.0 mg/kg/injection, schedule: Q01DX001 (ip), vehicle: saline.
The mark [11] stands for this setting: dose: 200.0 mg/kg/injection, schedule: Q01DX001 (ip), vehicle: saline.
Setting [12] is: dose: 400.0 mg/kg/injection, schedule: Q01DX001 (ip), vehicle: saline.
Setting [13] is: dose: 100.0 mg/kg/injection, schedule: Q01DX001 (ip), vehicle: carboxymethylcellulose (CMC).
Setting [14] is: dose: 200.0 mg/kg/injection, schedule: Q01DX001 (ip), vehicle: carboxymethylcellulose (CMC).
[15] abbreviates: dose: 400.0 mg/kg/injection, schedule: Q01DX001 (ip), vehicle: carboxymethylcellulose (CMC).

“And” between values parts separate entries of the source, which are not always exact repeats. Equal entries are not always repeated. Toxic doses and inconclusive results are not listed.

On to `CC(C)(Cc1ccc(Cl)cc1)N=C(N)N`, for which the T/C (dose: 25.0 mg/kg/injection, schedule: Q04DX002 (ip), vehicle: Klucel (hydroxypropylcellulose) (HPC)) was 107 % of control; the T/C (dose: 50.0 mg/kg/injection, schedule: Q04DX002 (ip), vehicle: Klucel (hydroxypropylcellulose) (HPC)) was 95 % of control; the T/C under setting [1] is 104 % of control.

With `CC(C)(C(=O)[O-])C(=O)O.[Co+3].[NH2-].[NH2-].[NH2-].[NH2-].[NH2-].[O-][Cl+3]([O-])([O-])O`, the T/C by setting is: (dose: 100.0 mg/kg/injection, schedule: Q04DX002 (ip), vehicle: saline) 92 % of control; (dose: 200.0 mg/kg/injection, schedule: Q04DX002 (ip), vehicle: saline) 95 % of control; (dose: 400.0 mg/kg/injection, schedule: Q04DX002 (ip), vehicle: saline) 106 % of control.

`Cc1cc2cc3cccc[n+]3cc2c2ccccc12`: the T/C is, setting by setting: (dose: 2.0 mg/kg/injection, schedule: Q01DX Z (ip), vehicle: carboxymethylcellulose (CMC)) 101 % of control; (dose: 4.0 mg/kg/injection, schedule: Q01DX Z (ip), vehicle: carboxymethylcellulose (CMC)) 110 % of control; (dose: 8.0 mg/kg/injection, schedule: Q01DX Z (ip), vehicle: carboxymethylcellulose (CMC)) 113 % of control; (dose: 16.0 mg/kg/injection, schedule: Q01DX Z (ip), vehicle: carboxymethylcellulose (CMC)) 113 % of control.

Regarding `C=C(C)c1cc2ccccc2cc1O`, the T/C reads like this: (dose: 100.0 mg/kg/injection, schedule: Q01DX009 (ip), vehicle: saline with Tween-80) 98 % of control; under setting [2], 90 % of control; (dose: 200.0 mg/kg/injection, schedule: Q01DX009 (ip), vehicle: saline with Tween-80) 100 % of control; under setting [3], 94 % of control; (dose: 400.0 mg/kg/injection, schedule: Q01DX009 (ip), vehicle: saline with Tween-80) 98 % of control; under setting [4], 92 % of control.

On to `Cn1cc([N+](=O)[O-])cnc1=O`, for which the T/C was 100 % of control under setting [5], 102 % of control under setting [6] and 102 % of control under setting [7].

Regarding `Cc1ccc(NC(=O)OCCN2CCNC2=S)c([N+](=O)[O-])c1`, the T/C by setting is: (dose: 50.0 mg/kg/injection, schedule: Q01DX009 (ip), vehicle: Klucel (hydroxypropylcellulose) (HPC)) 95 % of control; under setting [8], 87 % of control; under setting [5], 93 % of control; under setting [9], 91 % of control; under setting [6], 91 % of control; under setting [7], 96 % of control.

On to `C/C=C(\Br)C(=O)N1CCCCC1`, for which the T/C reads like this: under setting [10], 94 % of control; under setting [11], 100 % of control; under setting [12], 95 % of control.

For the molecule `CN(C)c1ccc(/C=N/NC(N)=S)nc1`, the T/C was 116 % of control (dose: 5.0 mg/kg/injection, schedule: Q03HX032 (ip), vehicle: saline with Tween-80); 158 % of control (dose: 12.0 mg/kg/injection, schedule: Q03HX032 (ip), vehicle: saline with Tween-80); 188 % of control and 320 % of control (dose: 18.0 mg/kg/injection, schedule: Q03HX032 (ip), vehicle: saline with Tween-80); 110 % of control (dose: 19.0 mg/kg/injection, schedule: Q04DX003 (ip), vehicle: saline with Tween-80); 162 % of control (dose: 44.0 mg/kg/injection, schedule: Q04DX003 (ip), vehicle: saline with Tween-80); 118 % of control (dose: 67.0 mg/kg/injection, schedule: Q04DX003 (ip), vehicle: saline with Tween-80). For the same molecule, the T/C under setting [3] is 113 % of control.

Consider `CCCCCCCCCCCCS`, for which the T/C is 103 % of control under setting [13], 105 % of control under setting [14] and 103 % of control under setting [15].

Consider `COc1nccnc1NS(=O)(=O)c1ccc(N)cc1`, for which the T/C reads like this: under setting [10], 95 % of control; (dose: 100.0 mg/kg/injection, schedule: Q01DX009 (ip), vehicle: saline) 92 % of control; under setting [11], 96 % of control; (dose: 200.0 mg/kg/injection, schedule: Q01DX009 (ip), vehicle: saline) 106 % of control; under setting [12], 102 % of control; (dose: 400.0 mg/kg/injection, schedule: Q01DX009 (ip), vehicle: saline) 92 % of control.

In the case of `Cn1c(=O)c(Br)c(N)c2ccccc21`, the T/C by setting is: (dose: 100.0 mg/kg/injection, schedule: Q01DX001 (ip), vehicle: other) 101 % of control; (dose: 200.0 mg/kg/injection, schedule: Q01DX001 (ip), vehicle: other) 101 % of control; (dose: 400.0 mg/kg/injection, schedule: Q01DX001 (ip), vehicle: other) 101 % of control.

`COc1ccccc1NC(=O)Nc1c(C)cccc1C`: the T/C by setting is: (dose: 100.0 mg/kg/injection, schedule: Q01DX009 (ip), vehicle: gum acacia) 97 % of control; (dose: 100.0 mg/kg/injection, schedule: Q04DX003 (ip), vehicle: gum acacia) 98 % of control; (dose: 200.0 mg/kg/injection, schedule: Q01DX009 (ip), vehicle: gum acacia) 88 % of control; (dose: 200.0 mg/kg/injection, schedule: Q04DX003 (ip), vehicle: gum acacia) 93 % of control; (dose: 400.0 mg/kg/injection, schedule: Q01DX009 (ip), vehicle: gum acacia) 90 % of control; (dose: 400.0 mg/kg/injection, schedule: Q04DX003 (ip), vehicle: gum acacia) 94 % of control.

In the case of `CCCCCCCC(=O)N1CC(C)OC(C)C1` (centres undefined), the T/C is 100 % of control under setting [1]; 114 % of control (dose: 200.0 mg/kg/injection, schedule: Q04DX002 (ip), vehicle: Klucel (hydroxypropylcellulose) (HPC)); 107 % of control (dose: 400.0 mg/kg/injection, schedule: Q04DX002 (ip), vehicle: Klucel (hydroxypropylcellulose) (HPC)).

Turning to `CCOC1Cc2ccccc21` (centres undefined), the T/C was 95 % of control under setting [2], 96 % of control under setting [3] and 98 % of control under setting [4].

With `NC(=S)N/N=C/c1ccc([N+](=O)[O-])s1` (tested in a mixture with another compound), the T/C under setting [13] is 92 % of control, the T/C under setting [14] is 97 % of control and the T/C under setting [15] was 94 % of control.

For `Cc1ccc(NC(=S)N(C)C)cc1Cl`, the T/C is 97 % of control under setting [8]; 104 % of control under setting [5]; 101 % of control under setting [9]; 97 % of control under setting [6]; 100 % of control (dose: 400.0 mg/kg/injection, schedule: Q01DX009 (ip), vehicle: Klucel (hydroxypropylcellulose) (HPC)); 104 % of control under setting [7].

Take `O=C(Nc1ccccc1)Nc1ccc([N+](=O)[O-])cc1[N+](=O)[O-]`: the T/C was 93 % of control (dose: 100.0 mg/kg/injection, schedule: Q01DX001 (ip), vehicle: saline with Tween-80); 92 % of control under setting [2]; 92 % of control (dose: 200.0 mg/kg/injection, schedule: Q01DX001 (ip), vehicle: saline with Tween-80); 93 % of control under setting [3]; 98 % of control (dose: 400.0 mg/kg/injection, schedule: Q01DX001 (ip), vehicle: saline with Tween-80).

On to `O=c1cc(Cc2ccc(F)cc2)[nH]c(=O)[nH]1`, for which the T/C (dose: 25.0 mg/kg/injection, schedule: Q01DX001 (ip), vehicle: Klucel (hydroxypropylcellulose) (HPC)) is 97 % of control; the T/C (dose: 50.0 mg/kg/injection, schedule: Q01DX001 (ip), vehicle: Klucel (hydroxypropylcellulose) (HPC)) is 101 % of control; the T/C (dose: 100.0 mg/kg/injection, schedule: Q01DX001 (ip), vehicle: Klucel (hydroxypropylcellulose) (HPC)) was 96 % of control.

As to `COC1CCC(/C=C(\C#N)C2CCC([N+](=O)[O-])CC2)CC1` (centres undefined), the T/C was 106 % of control (dose: 100.0 mg/kg/injection, schedule: Q04DX002 (ip), vehicle: saline with Tween-80); 102 % of control (dose: 200.0 mg/kg/injection, schedule: Q04DX002 (ip), vehicle: saline with Tween-80); 98 % of control (dose: 400.0 mg/kg/injection, schedule: Q04DX002 (ip), vehicle: saline with Tween-80).

The record behind these values is PubChem BioAssay AID248 (DTP/NCI, 2004).
